Legend:
Experiment in all cases: Secondary pharmacology panel (87 targets)
Format in all cases: binding
Details in all cases: test concentration 30 µM
[1] = biological target: T1, CCK1 [cholecystokinin A receptor] (Homo sapiens, UniProt P32238)
T1 sequence (P32238 1-428): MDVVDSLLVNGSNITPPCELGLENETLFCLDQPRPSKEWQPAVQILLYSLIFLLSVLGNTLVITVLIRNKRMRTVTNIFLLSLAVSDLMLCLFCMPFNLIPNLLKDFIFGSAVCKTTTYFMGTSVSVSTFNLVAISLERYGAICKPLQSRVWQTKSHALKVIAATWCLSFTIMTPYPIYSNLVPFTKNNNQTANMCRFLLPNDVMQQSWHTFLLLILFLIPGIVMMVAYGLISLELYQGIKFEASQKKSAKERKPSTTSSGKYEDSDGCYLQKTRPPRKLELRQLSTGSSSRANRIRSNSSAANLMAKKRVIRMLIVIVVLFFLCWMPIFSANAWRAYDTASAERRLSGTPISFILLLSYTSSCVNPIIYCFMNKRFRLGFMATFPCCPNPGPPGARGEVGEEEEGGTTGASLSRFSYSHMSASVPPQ
Source text: (§1) Findings were considered significant if ≥50% inhibition of ligand binding or ≥50% stimulation/inhibition were shown in biochemical assays. Those receptors with values ≥50% were further evaluated for binding and functional half-maximal inhibitory concentrations (IC50).

[2] = biological target: δ [DOP; delta opioid receptor] (Homo sapiens, UniProt P41143)
δ [DOP; delta opioid receptor], sequence (P41143 whole entry): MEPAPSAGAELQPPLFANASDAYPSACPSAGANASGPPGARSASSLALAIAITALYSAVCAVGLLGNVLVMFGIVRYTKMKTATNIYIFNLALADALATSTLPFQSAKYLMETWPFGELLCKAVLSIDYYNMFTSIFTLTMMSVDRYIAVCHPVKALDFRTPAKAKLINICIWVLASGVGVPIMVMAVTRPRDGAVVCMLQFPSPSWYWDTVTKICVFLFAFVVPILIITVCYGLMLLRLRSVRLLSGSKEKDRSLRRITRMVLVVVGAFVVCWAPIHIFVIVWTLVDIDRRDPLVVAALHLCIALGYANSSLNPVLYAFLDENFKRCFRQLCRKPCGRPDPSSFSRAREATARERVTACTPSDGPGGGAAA
Source text: as §1

[3] = biological target: T2, CCK2 [cholecystokinin B receptor] (Homo sapiens, UniProt P32239)
T2 sequence (P32239 1-447): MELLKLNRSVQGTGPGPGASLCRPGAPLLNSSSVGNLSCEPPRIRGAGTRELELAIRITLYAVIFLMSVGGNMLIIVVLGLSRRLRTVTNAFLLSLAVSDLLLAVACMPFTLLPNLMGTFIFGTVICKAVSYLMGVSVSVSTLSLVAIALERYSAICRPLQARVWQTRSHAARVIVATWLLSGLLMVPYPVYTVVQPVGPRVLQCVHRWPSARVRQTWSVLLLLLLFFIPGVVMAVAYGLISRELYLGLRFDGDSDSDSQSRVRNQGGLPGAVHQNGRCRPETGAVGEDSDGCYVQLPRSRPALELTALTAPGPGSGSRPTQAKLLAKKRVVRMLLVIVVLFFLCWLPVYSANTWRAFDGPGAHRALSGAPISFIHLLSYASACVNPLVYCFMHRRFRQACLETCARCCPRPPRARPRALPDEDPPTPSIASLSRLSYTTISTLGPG
Source text: as §1

COc1ccccc1[C@@H]1[C@H](C(=O)O)[C@@H](c2ccccc2OC)[C@H]1C(=O)OC1Cc2ccccc2C1 [ART26.12, (+)–3-Indan-2-yloxycarbonyl-2,4-bis(2-methoxyphenyl)cyclobutanecarboxylic acid]
greater than 50%: binding to CCK1 in secondary pharmacology screening [1] | binding to δ (DOP) in secondary pharmacology screening [2] | binding to CCK2 in secondary pharmacology screening [3]

Source: publication PMC12993615 (The journal of pain, 2024)
